Assay results published in patent publication US20040023945A1, “CYCLIC AMP-SPECIFIC PHOSPHODIESTERASE INHIBITORS” (ICOS Corporation, priority 1999, published 2004).
Where two headings read alike, the source gives them in different places. One block for each molecule: values may come before it.

Tests used:
[1] = A. Robichaud et al., Neuropharmacology 1999; cited from earlier work
[2] = system: serum TNFα levels in LPS-injected mice; test: Inhibition of serum TNFα levels in LPS-injected mice (Mouse/TNFα ED50); assay type: in vivo; conditions: Mus musculus
Experimental: In order to assess the ability of a compound to reduce serum TNFα levels in mammals, the following protocol was employed. […] Accordingly, in vivo efficacy of a PDE4 reducing compound was shown by dosing with compound and measuring reduction of serum TNFα levels in LPS-injected mice. Female C3H mice, 20-25 gm body weight, were fasted overnight and dosed intraperitoneally with test compound in appropriate vehicle 60 minutes before LPS injection. Five μg of LPS was then injected intraperitoneally into the mice. Ninety minutes after LPS injection, mice were bled from the heart. Blood was allowed to clot overnight at 4° C. Samples were centrifuged for 10 minutes in a microcentrifuge and the serum removed and stored at −20° C. until analysis. Serum levels of TNFα were subsequently measured using a commercially available ELISA kit (Genzyme) following the protocol enclosed in the kit. The percent of inhibition of serum TNFα levels caused by the compound was determined relative to serum TNFα levels in control mice receiving vehicle alone. […]

[3] = system: human peripheral blood lymphocytes; test: Lipopolysaccharide-stimulated TNFα release from human peripheral blood lymphocytes; assay type: cell-based; conditions: Homo sapiens, Lymphocyte
Experimental: The compounds of structural formula (II) also were tested for an ability to reduce TNFα secretion in human peripheral blood lymphocytes. The ability to reduce TNFα secretion is related to the EC50 values (i.e., the effective concentration of the compound capable of inhibiting 50% of the total TNFα).
To assess the ability of a compound to reduce TNFα secretion in human peripheral blood lymphocytes (PBL), the following tests were performed.
Heparinized blood (approximately 30 mL) drawn from human volunteers was mixed 1:1 with Dulbecco's modified phosphate-buffered saline. This mixture was mixed 1:1 with HISTOPAQUE® and centrifuged at 1,500 rpm at room temperature without braking in the swinging bucket of a Beckman model TJ6 centrifuge. Erythrocytes were centrifuged to the bottom of the tubes, and serum remained at the surface of the tubes. A layer containing lymphocytes sedimented between the serum and HISTOPAQUE® layers, and was removed by aspiration to a fresh tube. The cells were quantified and adjusted to 3×10^6 cells/mL and a 100 μL aliquot is placed into the wells of a 96 well plate. Test compounds and RPMI media (Gibco/BRL Life Sciences) are added to each of the wells 15 minutes prior to addition of bacterial LPS ([…]). The mixture was allowed to incubate for 20 hours at 37° C. in a humidified chamber. The cells then were separated by centrifuging at 800 rpm for 5 minutes at room temperature. An aliquot of 180 μL of supernatant was transferred to a new plate for determination of TNFα concentration. TNFα protein in the cell supernatant fluids was measured using a commercially available enzyme-linked immunosorbent assay (ELISA) (CYTOSCREEN® Immunoassay Kit from Biosource International).
The cell-based assay provided the following results for various pyrrolidine compounds of the present invention. The EC50 values (i.e., effective concentration of the compound capable of inhibiting 50% of the total TNFα) illustrate the ability of the present compounds to inhibit LPS-stimulated TNFα release from human PBL.

human recombinant PDE4B = biological target: T1, human recombinant PDE4B (Homo sapiens, UniProt Q07343); test: Inhibition of human recombinant PDE4B; assay type: biochemical
T1 construct: made in house; host or cells: Saccharomyces cerevisiae strain YI23 harboring HDUN2.32

[4] = Mouse locomotor activity assay (decrease in spontaneous mobility); conditions: female, Balb/c, in vivo, intraperitoneal, read-out: Mouse Inhibition of Spontaneous Mobility ED50
Experimental: (§1) The purpose of this study was to determine the efficacy of PDE4 inhibitors in vivo in an LPS mouse model together with a determination with respect to central nervous system (CNS) side-effects manifested by a decrease in spontaneous mobility.
(§2) The test animals were female Balb/c mice, having an average weight of about 20 g. The PDE4 inhibitors, formulated in 30% Cremophor® EL, were administered via intraperitoneal (i.p.) injections at doses of 0.1, 1.0, 10.0, and 100 mg/kg. Individual dose volumes (about 150 μL) were adjusted based on the body weights measured. One hour later, 5 mg/kg LPS in a final volume of 200 μL was injected via the tail vein to each animal. Ninety minutes following the LPS treatment, the animals were bled and serum samples were collected before being stored at −70° C. until assayed.
(§3) Movement of the X-Y plane, or rearing up on the hind legs, was quantified by counting the number of “light-beam” crosses per unit of time. A decrease in the number of activity events is directly proportional to the mobility or immobilization of the animal. The quantitative scoring correlated well with the subjective measurements described above.

recombinant human PDE4 [5] = conditions: background, prior art; read-out: reported IC50 with respect to recombinant human PDE4; cited from earlier work
Balb/c mice = test: Mouse locomotor activity assay (decrease in spontaneous mobility); conditions: in vivo, ip
Experimental: as §1, §2, §3

mouse = test: Subjective assessment of mouse immobility (CNS side effects); assay type: in vivo; conditions: subjective assessment of mouse immobility, i.p. 1, 10 and 100 mg/kg, 60 minutes
PDE2 = biological target: T2, PDE2 (Homo sapiens, UniProt O00408); test: Inhibition of PDE2; assay type: biochemical
T2 construct: made in house; host or cells: Saccharomyces cerevisiae strain YI34

PDE7 = biological target: T3, PDE7 (Homo sapiens, UniProt Q13946); test: Inhibition of PDE7; assay type: biochemical
T3 construct: made in house; host or cells: Saccharomyces cerevisiae BJ2-54

PDE1B = biological target: T4, PDE1B (Homo sapiens, UniProt Q01064); test: Inhibition of PDE1B; assay type: biochemical
T4 construct: made in house; host or cells: Saccharomyces cerevisiae BJ2-54

PDE5 = biological target: T5, PDE5 (Homo sapiens, UniProt O76074); test: Inhibition of PDE5; assay type: biochemical
T5 construct: made in house; host or cells: Saccharomyces cerevisiae BJ2-54

PDE1A = biological target: T6, PDE1A (Homo sapiens, UniProt P54750); test: Inhibition of PDE1A; assay type: biochemical
T6 construct: contained the complete open reading frame of PDE1A3; made in house; host or cells: baculovirus-infected Sf9 cells

recombinant human PDE4 [6] = test: Inhibition of recombinant human PDE4 (cAMP hydrolysis); conditions: read-out: PDE4 IC50
PDE1C = biological target: T7, PDE1C (Homo sapiens, UniProt Q14123); test: Inhibition of PDE1C; assay type: biochemical
T7 construct: contained the complete open reading frame of PDE1C3; made in house; host or cells: baculovirus-infected Sf9 cells

PDE3A = biological target: T8, PDE3A (Homo sapiens, UniProt Q14432); test: Inhibition of PDE3A; assay type: biochemical
T8 construct: contained the complete open reading frame of PDE3A; made in house; host or cells: baculovirus-infected Sf9 cells

ferret = test: Emetic modeling in the ferret following oral and intravenous dosing; assay type: in vivo, Mustela putorius furo
Experimental: This study was conducted to investigate the emetogenic properties of PDE4 inhibitors in vivo. The ferret previously has been established as a valuable tool for assessing emesis following exposure to test compounds. […] Therefore, lack of and/or decrease in emetic potential of test compounds in ferrets predicts a favorable nonemetic effect in humans. Emesis is a complex physiological response to noxious agents that can be intiated peripherally or centrally.
The test animals were adult, castrated, and descented male ferrets (species=Mustela putorius furo, Strain=Sable) ranging in weight from about 1 to 1.5 kg. The tests were performed in quadruplicate on animals that were naive to PDE4 inhibitors. The PDE4 inhibitors were formulated in 10% Polyoxyl-35 castor oil (CREMOPHOR® EL, available from BASF Corporation, Parsippany, N.J.) in phosphate buffered saline (PBS), and were administered via i.v. injections into an indwelling catheter surgically positioned in the right external jugular vein at a rate of 0.66 mL per kg body weight. PDE4 inhibitors for oral consumption were formulated in 30% CREMOPHOR® EL in PBS, and administered by intubating animals with a 16-gauge feeding needle into the stomach. The animals received the PDE4 inhibitors in a volume of 1.33 mL per kg body weight.
All animals were fasted for 8 to 12 hours prior to administration of PDE4 inhibitors. Following administration of a PDE4 inhibitor, emetic and behavioral responses were quantified for three hours post dosing. The total number of emetic responses and vomiting episodes were quantified during the observation interval. In addition, latency time to first emetic episode, duration of emesis episodes, and gross behavioral changes including ataxia, profuse and viscous salivation, mouth clawing, hyperventilation, backward walking, flattened body posture, hyperactivity, lip licking, and general appearance were recorded.
For comparative purposes, the emetogenic effect of Samples 66 and 69 were tested intravenously at 1.0, 2.5, 5.0, and 10 mg/kg and orally at 2.5, 10, 17, and 25 mg/kg.

[7] = read-out: Mouse LPS Challenge ED50

T1 sequence (Q07343 whole entry): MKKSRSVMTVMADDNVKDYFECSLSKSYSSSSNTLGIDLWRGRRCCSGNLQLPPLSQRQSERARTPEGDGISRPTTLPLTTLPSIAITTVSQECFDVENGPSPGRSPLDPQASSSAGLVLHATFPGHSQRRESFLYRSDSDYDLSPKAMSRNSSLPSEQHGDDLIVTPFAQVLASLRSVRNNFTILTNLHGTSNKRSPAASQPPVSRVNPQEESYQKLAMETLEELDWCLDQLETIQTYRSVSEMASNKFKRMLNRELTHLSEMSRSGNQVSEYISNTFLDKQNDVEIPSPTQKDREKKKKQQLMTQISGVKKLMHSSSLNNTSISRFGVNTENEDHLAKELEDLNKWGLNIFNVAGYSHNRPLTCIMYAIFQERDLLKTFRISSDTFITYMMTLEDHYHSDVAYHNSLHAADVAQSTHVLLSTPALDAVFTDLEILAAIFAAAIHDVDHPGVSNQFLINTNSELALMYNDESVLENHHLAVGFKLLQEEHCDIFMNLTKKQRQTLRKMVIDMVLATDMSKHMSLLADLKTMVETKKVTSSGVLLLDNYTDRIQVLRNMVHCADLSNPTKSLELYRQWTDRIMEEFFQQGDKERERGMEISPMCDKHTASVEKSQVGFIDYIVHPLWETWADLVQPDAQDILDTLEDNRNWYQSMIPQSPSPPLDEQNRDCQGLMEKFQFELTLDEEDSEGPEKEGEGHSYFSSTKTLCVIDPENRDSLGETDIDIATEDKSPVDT
T3 sequence (Q13946 whole entry): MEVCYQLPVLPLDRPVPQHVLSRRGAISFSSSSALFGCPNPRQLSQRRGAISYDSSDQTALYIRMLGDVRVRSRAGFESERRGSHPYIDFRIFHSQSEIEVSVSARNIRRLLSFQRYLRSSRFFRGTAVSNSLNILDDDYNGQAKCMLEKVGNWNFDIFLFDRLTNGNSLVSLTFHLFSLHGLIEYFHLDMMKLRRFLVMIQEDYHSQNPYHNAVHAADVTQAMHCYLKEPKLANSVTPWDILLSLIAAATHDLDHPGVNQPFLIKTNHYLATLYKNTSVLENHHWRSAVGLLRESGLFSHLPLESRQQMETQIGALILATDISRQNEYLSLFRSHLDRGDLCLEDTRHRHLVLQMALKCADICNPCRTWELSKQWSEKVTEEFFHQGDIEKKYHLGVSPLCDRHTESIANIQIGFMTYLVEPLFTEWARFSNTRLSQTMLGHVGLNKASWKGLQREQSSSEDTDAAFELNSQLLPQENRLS
T8 sequence (Q14432 whole entry): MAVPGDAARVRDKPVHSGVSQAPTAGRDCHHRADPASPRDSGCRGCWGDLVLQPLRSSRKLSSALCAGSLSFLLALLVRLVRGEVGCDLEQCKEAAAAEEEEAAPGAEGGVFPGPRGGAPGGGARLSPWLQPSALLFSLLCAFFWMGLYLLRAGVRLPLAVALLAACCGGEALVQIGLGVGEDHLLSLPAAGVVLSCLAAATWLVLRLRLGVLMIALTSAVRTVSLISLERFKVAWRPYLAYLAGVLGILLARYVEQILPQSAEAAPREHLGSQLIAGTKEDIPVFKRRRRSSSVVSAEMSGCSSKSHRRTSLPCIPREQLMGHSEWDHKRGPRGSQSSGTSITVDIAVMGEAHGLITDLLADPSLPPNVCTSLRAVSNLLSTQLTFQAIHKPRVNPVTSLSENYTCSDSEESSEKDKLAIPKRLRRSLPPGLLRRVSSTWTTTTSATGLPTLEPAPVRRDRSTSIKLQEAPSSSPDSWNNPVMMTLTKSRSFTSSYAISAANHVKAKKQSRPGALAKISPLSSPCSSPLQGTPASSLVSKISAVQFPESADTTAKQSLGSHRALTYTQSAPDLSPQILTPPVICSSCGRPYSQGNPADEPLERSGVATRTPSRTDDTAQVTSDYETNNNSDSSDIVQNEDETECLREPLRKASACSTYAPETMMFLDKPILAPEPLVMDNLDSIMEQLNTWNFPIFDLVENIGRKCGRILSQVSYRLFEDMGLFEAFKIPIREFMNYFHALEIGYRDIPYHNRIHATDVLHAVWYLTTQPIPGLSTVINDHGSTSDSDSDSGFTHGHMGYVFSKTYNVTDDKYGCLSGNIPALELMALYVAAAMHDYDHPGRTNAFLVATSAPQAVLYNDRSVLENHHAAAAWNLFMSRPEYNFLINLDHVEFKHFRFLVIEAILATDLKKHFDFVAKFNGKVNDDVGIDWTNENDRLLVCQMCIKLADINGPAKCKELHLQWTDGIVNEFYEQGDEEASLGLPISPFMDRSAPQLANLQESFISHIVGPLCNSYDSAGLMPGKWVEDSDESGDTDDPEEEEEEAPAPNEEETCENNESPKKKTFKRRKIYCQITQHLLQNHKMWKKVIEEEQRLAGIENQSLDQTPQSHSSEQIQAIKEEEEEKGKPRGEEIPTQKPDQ
T2 sequence (O00408 whole entry): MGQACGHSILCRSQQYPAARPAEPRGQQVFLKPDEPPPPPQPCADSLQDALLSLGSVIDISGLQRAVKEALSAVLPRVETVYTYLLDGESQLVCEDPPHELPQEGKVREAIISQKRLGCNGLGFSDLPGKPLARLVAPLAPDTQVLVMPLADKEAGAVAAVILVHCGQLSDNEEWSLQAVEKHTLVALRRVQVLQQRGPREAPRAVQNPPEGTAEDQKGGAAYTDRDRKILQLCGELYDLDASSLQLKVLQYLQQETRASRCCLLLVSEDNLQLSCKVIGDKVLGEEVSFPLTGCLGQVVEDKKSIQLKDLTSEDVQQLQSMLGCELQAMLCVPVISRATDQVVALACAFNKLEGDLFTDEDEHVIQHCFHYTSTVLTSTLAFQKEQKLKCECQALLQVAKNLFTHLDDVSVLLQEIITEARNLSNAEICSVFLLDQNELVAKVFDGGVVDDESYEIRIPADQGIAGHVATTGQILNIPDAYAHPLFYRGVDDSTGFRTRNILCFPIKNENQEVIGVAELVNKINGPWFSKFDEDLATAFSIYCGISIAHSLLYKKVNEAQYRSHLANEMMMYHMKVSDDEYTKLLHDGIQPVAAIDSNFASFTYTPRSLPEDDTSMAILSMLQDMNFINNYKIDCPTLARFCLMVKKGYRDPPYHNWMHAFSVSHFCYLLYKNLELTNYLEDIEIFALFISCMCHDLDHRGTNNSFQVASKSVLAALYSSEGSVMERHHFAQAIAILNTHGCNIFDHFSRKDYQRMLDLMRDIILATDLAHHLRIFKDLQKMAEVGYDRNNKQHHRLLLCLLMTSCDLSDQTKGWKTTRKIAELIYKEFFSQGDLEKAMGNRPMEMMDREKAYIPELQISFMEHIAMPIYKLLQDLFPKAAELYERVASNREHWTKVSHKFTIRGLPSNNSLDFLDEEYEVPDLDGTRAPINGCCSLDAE

SMILES: COc1ccc([C@@H]2CNC(=O)C2)cc1OC1CCCC1 [R-rolipram]
emetic potency relative to the (+)-enantiomer (S-rolipram) [1]: about ten-fold

SMILES: COc1ccc(C2CNC(=O)C2)cc1OC1CCCC1 (centres unmarked) [Rolipram, rolipram]
IC50 (recombinant human PDE4 [5]): ~200 nM

SMILES: COC(=O)N1CC(c2ccc(OC)c(OC3CCCC3)c2)C(C)(C(C)=O)C1 (centres unmarked) [formula (I)]
IC50 (recombinant human PDE4 [5]): ~2 nM

SMILES: COc1ccc([C@@H]2CN(C(=O)CNC(=O)OCc3ccccc3)C[C@@]2(C)[C@@H](C)O)cc1OC1Cc2ccccc2C1 [Example 29, N-(2-[3-((1R)-1-Hydroxyethyl)(3S,4S)-4-(3-indan-2-yloxy-4-methoxyphenyl)-3-methylpyrrolidinyl]-2-oxoethyl}(phenylmethoxy)carboxamide]
ED50, effective dose that decreases spontaneous mobility 50% of control (Balb/c mice): 9.8 mg/kg

SMILES: COC(=O)N1C[C@@H](c2ccc(OC)c(OC3CCCC3)c2)[C@](C)([C@@H](C)O)C1 [(C)]
CNS Side Effects (mouse): No effect
IC50 (PDE2): 450000 nM
ED50 ([2]; stereoisomer comparison table, read-out: Mouse/TNFα ED50): 5 mg/kg
EC50 ([3]; LPS-stimulated TNFα release from human PBL, read-out: PBL/TNFα EC50): 71.6 nM
IC50 (PDE7): 36000 nM
IC50 (PDE1B): 100000 nM
IC50 (PDE5): 270000 nM
IC50 (PDE1A): 80000 nM
IC50 (recombinant human PDE4 [6]; human recombinant PDE4): 14 nM
IC50 (recombinant human PDE4 [6]; stereoisomer comparison table): 14 nM
IC50 (PDE1C): 12000 nM
IC50 (human recombinant PDE4B; read-out: IC50 vs. human recombinant PDE4B): 15 nM
IC50 (PDE3A): 40000 nM
Number of Emetic Events: Retches (ferret; intravenous 1.0 mg/kg): 0
Number of Emetic Events: Total (ferret; intravenous 1.0 mg/kg): 0
Number of Emetic Events: Vomits (ferret; intravenous 1.0 mg/kg): 0
Responders (ferret; intravenous 1.0 mg/kg): 0/4
Number of Emetic Events: Retches (ferret; intravenous 2.5 mg/kg): 0
Number of Emetic Events: Total (ferret; intravenous 2.5 mg/kg): 0
Number of Emetic Events: Vomits (ferret; intravenous 2.5 mg/kg): 0
Responders (ferret; intravenous 2.5 mg/kg): 0/4
Number of Emetic Events: Retches (ferret; intravenous 5.0 mg/kg): 10
Number of Emetic Events: Total (ferret; intravenous 5.0 mg/kg): 10
Number of Emetic Events: Vomits (ferret; intravenous 5.0 mg/kg): 0
Responders (ferret; intravenous 5.0 mg/kg): 2/4
Number of Emetic Events: Retches (ferret; intravenous 10.0 mg/kg): 27
Number of Emetic Events: Total (ferret; intravenous 10.0 mg/kg): 31
Number of Emetic Events: Vomits (ferret; intravenous 10.0 mg/kg): 4
Responders (ferret; intravenous 10.0 mg/kg): 4/4
distress after intravenous dosing (ferret; intravenous 10 mg/kg body weight): none displayed the distress
Number of Emetic Events: Retches (ferret; oral 2.5 mg/kg): 0
Number of Emetic Events: Total (ferret; oral 2.5 mg/kg): 0
Number of Emetic Events: Vomits (ferret; oral 2.5 mg/kg): 0
Responders (ferret; oral 2.5 mg/kg): 0/4
Number of Emetic Events: Retches (ferret; oral 10.0 mg/kg): 14
Number of Emetic Events: Total (ferret; oral 10.0 mg/kg): 22
Number of Emetic Events: Vomits (ferret; oral 10.0 mg/kg): 8
Responders (ferret; oral 10.0 mg/kg): 2/4
Number of Emetic Events: Retches (ferret; oral 17.0 mg/kg): 17
Number of Emetic Events: Total (ferret; oral 17.0 mg/kg): 18
Number of Emetic Events: Vomits (ferret; oral 17.0 mg/kg): 1
Responders (ferret; oral 17.0 mg/kg): 2/3
Number of Emetic Events: Retches (ferret; oral 25.0 mg/kg): 61
Number of Emetic Events: Total (ferret; oral 25.0 mg/kg): 73
Number of Emetic Events: Vomits (ferret; oral 25.0 mg/kg): 12
Responders (ferret; oral 25.0 mg/kg): 4/4

Continued, in another order:

EC50 ([3]; read-out: Cell based EC50): 30 nM
IC50 (human recombinant PDE4B; read-out: PDE4B IC50): 11 nM
ED50 [4]: 100 mg/kg
SMILES: CCCC(O)C(=O)N1C[C@@H](c2ccc(OC)c(OCC3CC3)c2)[C@](C)([C@@H](C)O)C1 (stereo partly drawn) [Example 101, 1-{(3S,4S)-3-((1R)-1-Hydroxyethyl)-4-[3-(cyclopropylmethoxy)-4-methoxyphenyl]-3-methylpyrrolidinyl)-2-hydroxypentan-1-one]
ED50 [2, 7]: 3 mg/kg

EC50 ([3]; read-out: Cell based EC50): 6 nM
IC50 (human recombinant PDE4B; read-out: PDE4B IC50): 15 nM
ED50 [4]: 100 mg/kg
SMILES: COc1ccc([C@@H]2CN(C(=O)[C@@H](O)Cc3ccccc3)C[C@@]2(C)[C@@H](C)O)cc1OCC#Cc1ccccc1 [Example 268, (S)-2-Hydroxy-1-{(3S,4S)-3-((R)-1-hydroxyethyl)-4-[4-methoxy-3-(3-phenylprop-2-ynyloxy)phenyl]-3-methylpyrrolidin-1-yl}-3-phenylpropan-1-one]
ED50 [2, 7]: 5 mg/kg

EC50 ([3]; read-out: Cell based EC50): 30 nM
IC50 (human recombinant PDE4B; read-out: PDE4B IC50): 7 nM
ED50 [4]: 100 mg/kg
SMILES: COc1ccc([C@@H]2CN(C(=O)C(O)c3ccccc3)C[C@@]2(C)[C@@H](C)O)cc1OCC1CC1 (stereo partly drawn) [Example 195, 1-{3-((1R)-1-Hydroxyethyl)(3S,4S)-4-[3-(cyclopropyl-methoxy)-4-methoxyphenyl]-3-methylpyrrolidinyl}-2-hydroxy-2-phenylethan-1-one]
ED50 [2, 7]: 9 mg/kg
